From patent publication US20250215039A1, “NUCLEOSIDES FOR TREATING CANCER” (PRIMEFOUR THERAPEUTICS, INC., priority 2022, published 2025)
Where two headings read alike, the source gives them in different places.

System: cancer cell lines
Test: Cancer cell proliferation activity (CellTiterGlo, 72 h)
Format: cell-based
Details: 72 h, 72 h, read-out: IC50
Procedure: Dose response relationships on cell proliferation was assessed for representative Compounds of the Disclosure on cancer cell lines. Briefly, compound treatment of cells started one day after seeding with a final DMSO concentration of 0.1%, and was performed by nanodrop-dispensing using a Tecan Dispenser. 0.1% DMSO (solvent) and Staurosporine (10 μM) served as high control (100% viability) and low control (0% viability), respectively.
Cells were cultured in the appropriate media. For the assays, cells were seeded in white cell culture-treated flat and clear bottom multiwell plates and incubated at 37° C. overnight before compound was added. After incubation for 72 h at 37° C. at 5% or 10% CO2 dependent on the medium, cell plates were equilibrated to room temperature for one hour, CellTiterGlo reagent (Promega) was added and luminescence was measured approximately an hour later using a luminometer.
Raw data were converted into percent cell viability relative to the high and low control, which were set to 100% and 0%, respectively.
The IC50 values are summarized in Tables 9A-1, Table 10A, and Table 10B.

For C[C@]1(CO)O[C@@H](n2cc(F)c(=O)[nH]c2=O)C[C@@H]1O [Cpd. No. 105, 5-fluoro-1-((2R,4S,5R)-4-hydroxy-5-(hydroxymethyl)-5-methyltetrahydrofuran-2-yl)pyrimidine-2,4(1H,3H)-dione], the IC50 (5637 cell line (bladder)) was 740 nM, the IC50 (CLS439 cell line (bladder)) was > 50000 nM and the IC50 (HS729 cell line (muscle)) was 1370 nM. The IC50 (HSS78T cell line) was > 50000 nM, the IC50 (JAR cell line (placenta)) was 5830 nM and the IC50 (SKMELS cell line) was 5100 nM. For the same compound, the IC50 (Homo sapiens, 22Rv1, 72 h, 22RV1 cell line (prostate)) was 310 nM, the IC50 (Homo sapiens, 786-0, 72 h, 786O cell line (kidney)) was 2510 nM and the IC50 (Homo sapiens, A204, 72 h, A204 cell line (muscle)) was 2550 nM. It also gave an IC50 (Homo sapiens, A549, 72 h, A549 cell line) of 530 nM, an IC50 (Homo sapiens, A673, 72 h, A673 cell line (bone)) of 2810 nM and an IC50 (Homo sapiens, A2780, 72 h, A2780 cell line (ovary)) of 3500 nM. The IC50 (Homo sapiens, A-375, 72 h, A375 cell line (skin)) was 3510 nM, the IC50 (Homo sapiens, A-431, 72 h, A431 cell line (skin)) was 50 nM and the IC50 (Homo sapiens, ACHN, ACHN cell line (kidney)) was 270 nM. For the same compound, the IC50 (Homo sapiens, ASPC1, 72 h, ASPC1 cell line (pancreas)) was 160 nM, the IC50 (Homo sapiens, BT-20, 72 h, BT20 cell line (breast)) was > 50000 nM and the IC50 (Homo sapiens, BXPC-3, 72 h, BXPC3 cell line (pancreas)) was 20 nM. For the same compound, the IC50 (Homo sapiens, C-33-A, C33A cell line (cervical)) was 1580 nM, the IC50 (Homo sapiens, CAKI-1, 72 h, CAKI1 cell line (kidney)) was > 50000 nM and the IC50 (Homo sapiens, COLO 205, 72 h, COLO205 cell line (colon)) was 310 nM. For the same compound, the IC50 (Homo sapiens, COLO-678, 72 h, COLO678 cell line (colon)) was > 50000 nM, the IC50 (Homo sapiens, Ca-Ski, CASKI cell line (cervical)) was 2470 nM and the IC50 (Homo sapiens, Caco-2, 72 h, CACO2 cell line (colon)) was > 50000 nM. For the same compound, the IC50 (Homo sapiens, Calu-6, 72 h, CALU6 cell line (lung)) was 1710 nM, the IC50 (Homo sapiens, DLD-1, 72 h, DLD1 cell line (colon)) was 3740 nM and the IC50 (Homo sapiens, DU-145, 72 h, DU145 cell line (prostate)) was 1000 nM. It also gave an IC50 (Homo sapiens, EFO-21, 72 h, EFO21 cell line (ovary)) of 2780 nM, an IC50 (Homo sapiens, EJ-28, 72 h, EJ28 cell line (bladder)) of 1720 nM and an IC50 (Homo sapiens, Granta-519, 72 h, GRANTA-519 cell line (hematological)) of 650 nM. For the same compound, the IC50 (Homo sapiens, HCT-15, 72 h, HCT15 cell line (colon)) was 2950 nM, the IC50 (Homo sapiens, HCT-116, 72 h, HCT116 cell line (colon)) was 5530 nM and the IC50 (Homo sapiens, HEK293, 72 h, HEK293 cell line (kidney)) was 4350 nM. The IC50 (Homo sapiens, HL-60, 72 h, HL-60 cell line (hematological)) was 3870 nM, the IC50 (Homo sapiens, HT-29, 72 h, HT29 cell line (colon)) was 530 nM and the IC50 (Homo sapiens, HT-1080, 72 h, HT1080 cell line (connective tissue)) was 2690 nM. For the same compound, the IC50 (Homo sapiens, HeLa, HELA cell line (cervical)) was > 50000 nM, the IC50 (Homo sapiens, HepG2, 72 h, HEPG2 cell line (liver)) was 770 nM and the IC50 (Homo sapiens, IGROV-1, 72 h, IGROV1 cell line (ovary)) was 2990 nM. The IC50 (Homo sapiens, IMR-90, 72 h, IMR.90 cell line) was > 50000 nM, the IC50 (Homo sapiens, J82, 72 h, J82 cell line (bladder)) was 1000 nM and the IC50 (Homo sapiens, JEG-3, 72 h, JEG3 cell line (placenta)) was 1170 nM. The IC50 (Homo sapiens, JIMT-1, 72 h, JIMT1 cell line (breast)) was 7280 nM, the IC50 (Homo sapiens, K562, 72 h, K-562 cell line (hematological)) was 5830 nM and the IC50 (Homo sapiens, Kasumi 1, 72 h, KASUMI-1 cell line (hematological)) was > 50000 nM. The IC50 (Homo sapiens, L-363, 72 h, L-363 cell line (hematological)) was 2800 nM, the IC50 (Homo sapiens, LoVo, LOVO cell line (colon)) was 510 nM and the IC50 (Homo sapiens, MCF7, 72 h, MCF7 cell line (breast)) was 170 nM. For the same compound, the IC50 (Homo sapiens, MDA-MB-231, 72 h, MDAMB231 cell line (breast)) was > 50000 nM, the IC50 (Homo sapiens, MDA-MB-435, 72 h, MDAMB435 cell line (skin)) was 2440 nM and the IC50 (Homo sapiens, MDA-MB-436, 72 h, MDAMB436 cell line (breast)) was 420 nM. For the same compound, the IC50 (Homo sapiens, MDA-MB-468, 72 h, MDAMB468 cell line (breast)) was 2880 nM, the IC50 (Homo sapiens, MG-63, 72 h, MG63 cell line (bone)) was 1810 nM and the IC50 (Homo sapiens, MHH-ES-1, 72 h, MHHES1 cell line (bone)) was 2290 nM. For the same compound, the IC50 (Homo sapiens, MIA PaCa-2, 72 h, MIAPACA2 cell line (pancreas)) was 2430 nM, the IC50 (Homo sapiens, MINO, MINO cell line (hematological)) was 580 nM and the IC50 (Homo sapiens, MV4-11, 72 h, MV4-11 cell line (hematological)) was 180 nM. For the same compound, the IC50 (Homo sapiens, NCI-H23, 72 h, NCI-H23 cell line (lung)) was 1410 nM, the IC50 (Homo sapiens, NCI-H82, 72 h, NCIH82 cell line (lung)) was 4600 nM and the IC50 (Homo sapiens, NCI-H292, 72 h, NCIH292 cell line (lung)) was > 50000 nM. For the same compound, the IC50 (Homo sapiens, NCI-H460, 72 h, NCIH460 cell line (lung)) was 600 nM, the IC50 (Homo sapiens, OVCAR-3, 72 h, OVCAR3 cell line (ovary)) was 5890 nM and the IC50 (Homo sapiens, OVCAR-4, 72 h, OVCAR4 cell line (ovary)) was 2790 nM. It also gave an IC50 (Homo sapiens, PANC-1, 72 h, PANC1 cell line (pancreas)) of 4990 nM, an IC50 (Homo sapiens, PC-3, 72 h, PC3 cell line (prostate)) of 8200 nM and an IC50 (Homo sapiens, PLC-PRF-5, 72 h, PLCPRF5 cell line (liver)) of 1720 nM. The IC50 (Homo sapiens, Panc1005, 72 h, PANC1005 cell line (pancreas)) was > 50000 nM, the IC50 (Homo sapiens, RD, RD cell line (muscle)) was 3490 nM and the IC50 (Homo sapiens, Ramos, RAMOS cell line (hematological)) was 3140 nM. It also gave an IC50 (Homo sapiens, SAOS-2, 72 h, SAOS2 cell line (bone)) of 1140 nM, an IC50 (Homo sapiens, SF-268, 72 h, SF268 cell line (brain)) of 1070 nM and an IC50 (Homo sapiens, SF-295, 72 h, SF295 cell line (brain)) of 1200 nM. It also gave an IC50 (Homo sapiens, SK-BR-3, 72 h, SKBR3 cell line (breast)) of 40 nM, an IC50 (Homo sapiens, SK-HEP1, 72 h, SKHEP1 cell line (liver)) of 1360 nM and an IC50 (Homo sapiens, SK-LMS-1, 72 h, SKLMS1 cell line (uterus)) of 1140 nM. The IC50 (Homo sapiens, SK-MEL-28, 72 h, SKMEL28 cell line (skin)) was > 50000 nM, the IC50 (Homo sapiens, SK-N-AS, SKNAS cell line (brain)) was > 50000 nM and the IC50 (Homo sapiens, SK-N-SH, SKNSH cell line (brain)) was > 50000 nM. For the same compound, the IC50 (Homo sapiens, SK-OV-3, 72 h, SKOV3 cell line (ovary)) was 810 nM, the IC50 (Homo sapiens, SNB-75, 72 h, SNB75 cell line (brain)) was > 50000 nM and the IC50 (Homo sapiens, SU-DHL10, 72 h, SU-DHL-10 cell line (hematological)) was 4950 nM. The IC50 (Homo sapiens, SU-DHL-6, 72 h, SU-DHL-6 cell line (hematological)) was 5490 nM, the IC50 (Homo sapiens, SW-620, 72 h, SW620 cell line (colon)) was 390 nM and the IC50 (Homo sapiens, T-24, 72 h, T24 cell line (bladder)) was 2840 nM. For the same compound, the IC50 (Homo sapiens, TE-671, 72 h, TE671 cell line (muscle)) was 5920 nM, the IC50 (Homo sapiens, THP-1, 72 h, THP-1 cell line (hematological)) was 1690 nM and the IC50 (Homo sapiens, U2OS, U2OS cell line (bone)) was > 50000 nM. The IC50 (Homo sapiens, U-87 MG, U87MG cell line (brain)) was > 50000 nM, the IC50 (Homo sapiens, UMUC3, 72 h, UMUC3 cell line (bladder)) was 2450 nM and the IC50 (Homo sapiens, UO-31, 72 h, UO31 cell line (kidney)) was > 50000 nM. The IC50 (Homo sapiens, WSU-NHL, WSU-NHL cell line (hematological)) was 610 nM, the IC50 (MT-3, 72 h, MT3 cell line (breast)) was 900 nM and the IC50 (NCI-H358M, NCIH358M cell line (lung)) was 1340 nM. It also gave an IC50 (PBMC, PBMC (hematological)) of 4980 nM and an IC50 (RD-ES, RDES cell line (bone)) of 1290 nM.
